# Source: article PMC7447754 (Nature Communications, 2020)
# Where a SMILES comes first, the peptide text is derived from it.
# Key:
# SARS-CoV-2 [1] = conditions: 24 h, pH 7.4
# parainfluenza virus 3 = conditions: 24 h, pH 7.4
# H1N1 virus [2] = test system: H1N1 virus
# physchem = conditions: water
# H1N1 virus [3] = test system: H1N1 virus; remark: listed apart in the source
# SARS-CoV-2 [4] = type: binding
# [5] = test system: virus–host endosomal acidification in H1N1-infected MDCK cells; type: cell-based, canine
# H1N1 HA1 protein = H1N1 HA1 protein (Influenza A virus, UniProt C3W5S1)
# Sequence of H1N1 HA1 protein (C3W5S1 18-344 limits assumed): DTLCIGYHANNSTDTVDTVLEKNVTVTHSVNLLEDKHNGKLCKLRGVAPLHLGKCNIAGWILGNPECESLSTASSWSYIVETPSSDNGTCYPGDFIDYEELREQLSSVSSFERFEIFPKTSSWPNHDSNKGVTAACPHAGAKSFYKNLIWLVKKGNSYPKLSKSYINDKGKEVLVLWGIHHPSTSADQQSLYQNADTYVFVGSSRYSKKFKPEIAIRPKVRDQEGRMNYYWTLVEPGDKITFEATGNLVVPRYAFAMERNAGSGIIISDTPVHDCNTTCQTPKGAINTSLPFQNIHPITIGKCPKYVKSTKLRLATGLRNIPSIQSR
# H1N1 virus [6] = test system: H1N1 virus; remark: listed apart in the source
# rhinovirus [7] = test system: rhinovirus
# MERS-CoV S protein = MERS-CoV S protein (Middle East respiratory syndrome-related coronavirus, UniProt K9N5Q8)
# Sequence of MERS-CoV S protein (K9N5Q8 18-1353 limits assumed): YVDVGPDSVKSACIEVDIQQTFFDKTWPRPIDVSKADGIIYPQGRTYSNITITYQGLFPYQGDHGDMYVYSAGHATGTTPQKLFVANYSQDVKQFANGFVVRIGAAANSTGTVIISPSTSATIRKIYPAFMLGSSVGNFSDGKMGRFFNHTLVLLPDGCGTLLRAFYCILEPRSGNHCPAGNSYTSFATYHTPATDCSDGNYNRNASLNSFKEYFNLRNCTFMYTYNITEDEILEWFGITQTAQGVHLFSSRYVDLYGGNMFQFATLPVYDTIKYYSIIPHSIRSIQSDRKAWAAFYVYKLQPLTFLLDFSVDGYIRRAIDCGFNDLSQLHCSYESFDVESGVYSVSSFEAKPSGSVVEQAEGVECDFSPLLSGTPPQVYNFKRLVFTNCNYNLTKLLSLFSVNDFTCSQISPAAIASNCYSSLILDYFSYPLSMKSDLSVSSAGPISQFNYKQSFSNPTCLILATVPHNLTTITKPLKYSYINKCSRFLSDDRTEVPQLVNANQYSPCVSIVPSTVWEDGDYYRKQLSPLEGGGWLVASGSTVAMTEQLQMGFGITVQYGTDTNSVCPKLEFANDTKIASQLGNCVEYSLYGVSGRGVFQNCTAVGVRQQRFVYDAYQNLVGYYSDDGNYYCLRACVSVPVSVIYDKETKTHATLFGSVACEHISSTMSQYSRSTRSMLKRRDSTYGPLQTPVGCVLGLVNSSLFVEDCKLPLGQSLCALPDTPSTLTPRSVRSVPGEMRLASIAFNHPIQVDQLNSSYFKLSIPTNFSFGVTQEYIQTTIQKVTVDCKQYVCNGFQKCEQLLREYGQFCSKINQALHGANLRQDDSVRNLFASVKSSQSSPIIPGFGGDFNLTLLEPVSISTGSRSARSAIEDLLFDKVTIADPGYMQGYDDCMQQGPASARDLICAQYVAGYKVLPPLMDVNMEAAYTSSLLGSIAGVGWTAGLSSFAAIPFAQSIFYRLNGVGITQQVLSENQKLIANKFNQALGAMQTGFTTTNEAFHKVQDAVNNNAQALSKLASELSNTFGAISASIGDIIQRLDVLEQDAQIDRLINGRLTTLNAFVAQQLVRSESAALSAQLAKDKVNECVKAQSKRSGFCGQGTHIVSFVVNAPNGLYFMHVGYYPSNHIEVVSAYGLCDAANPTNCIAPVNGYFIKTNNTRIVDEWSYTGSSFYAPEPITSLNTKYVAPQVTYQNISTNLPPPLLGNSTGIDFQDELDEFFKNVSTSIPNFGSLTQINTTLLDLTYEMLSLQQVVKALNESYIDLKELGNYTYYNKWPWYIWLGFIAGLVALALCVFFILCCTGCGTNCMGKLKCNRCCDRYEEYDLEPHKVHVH
# rhinovirus [8] = type: binding
# SARS-CoV-2 [9] = test system: SARS-CoV-2
# SARS-CoV-2 [10] = test system: SARS-CoV-2; remark: listed apart in the source
# [11] = test system: endosomal acidification in MDCK cells; type: cell-based, canine
Structure (SMILES),IC50 against SARS-CoV-2 (SARS-CoV-2 [1]),IC50 against parainfluenza virus 3 (parainfluenza virus 3),antiviral activity when cells were pretreated before viral infection (H1N1 virus [2]),solubility (physchem),effect on viral attachment (H1N1 virus [3]),binding to SARS-CoV-2 (SARS-CoV-2 [4]),inhibition of virus–host endosomal acidification in infected live cells [5],"inhibition of viral replication, A(H7N9) virus (A(H7N9) virus)",binding to H1N1 HA1 protein (H1N1 HA1 protein),"viral replication after 10,000-fold dilution of virus-peptide mixture (H1N1 virus [6])","inhibition of viral replication, rhinovirus (rhinovirus [7])",binding to MERS-CoV S protein (MERS-CoV S protein),binding to rhinovirus (rhinovirus [8]),"inhibition of viral replication, SARS-CoV (SARS-CoV)",inhibition of viral replication when added after SARS-CoV-2 infection (SARS-CoV-2 [9]),"inhibition of viral replication, SARS-CoV-2 (SARS-CoV-2 [10])","inhibition of viral replication, MERS-CoV (MERS-CoV)",inhibition of endosomal acidification in live cells [11]
"CC[C@H](C)[C@H](NC(=O)[C@H](C)NC(=O)CNC(=O)[C@@H](N)CC(N)=O)C(=O)N[C@@H](CS)C(=O)N[C@@H](Cc1c[nH]c2ccccc12)C(=O)NCC(=O)N1CCC[C@H]1C(=O)N[C@@H](CS)C(=O)N1CCC[C@H]1C(=O)N[C@H](C(=O)N[C@@H](C)C(=O)N[C@@H](Cc1ccccc1)C(=O)N[C@@H](CCCNC(=N)N)C(=O)N[C@@H](CCC(N)=O)C(=O)N[C@H](C(=O)NCC(=O)N[C@@H](CC(N)=O)C(=O)N[C@@H](CS)C(=O)NCC(=O)N[C@@H](Cc1c[nH]cn1)C(=O)N[C@@H](Cc1ccccc1)C(=O)N[C@@H](CCCCN)C(=O)N[C@H](C(=O)N[C@@H](CCCNC(=N)N)C(=O)N[C@@H](CS)C(=O)N[C@@H](CS)C(=O)N[C@@H](CCCCN)C(=O)N[C@H](C(=O)N[C@@H](CCCNC(=N)N)C(=O)O)[C@@H](C)CC)C(C)C)[C@@H](C)CC)[C@@H](C)O [P9, reference compound] (H-NGAICWGPCPTAFRQIGNCGHFKVRCCKIR-OH)",2.4 µg/mL,> 25.0 µg/mL,,,,,,,,,,,,,,,,
CC[C@H](C)[C@H](NC(=O)[C@H](C)NC(=O)CNC(=O)[C@@H](N)CC(N)=O)C(=O)N[C@@H](CS)C(=O)N[C@@H](Cc1c[nH]c2ccccc12)C(=O)NCC(=O)N1CCC[C@H]1C(=O)N[C@@H](CS)C(=O)N1CCC[C@H]1C(=O)N[C@H](C(=O)N[C@@H](C)C(=O)N[C@@H](Cc1ccccc1)C(=O)N[C@@H](CCCNC(=N)N)C(=O)N[C@@H](CCC(N)=O)C(=O)N[C@H](C(=O)NCC(=O)N[C@@H](CC(N)=O)C(=O)N[C@@H](CS)C(=O)NCC(=O)N[C@@H](CCCNC(=N)N)C(=O)N[C@@H](Cc1ccccc1)C(=O)N[C@@H](CCCNC(=N)N)C(=O)N[C@H](C(=O)N[C@@H](CCCNC(=N)N)C(=O)N[C@@H](CS)C(=O)N[C@@H](CS)C(=O)N[C@@H](CCCNC(=N)N)C(=O)N[C@H](C(=O)N[C@@H](CCCNC(=N)N)C(=O)O)[C@@H](C)CC)C(C)C)[C@@H](C)CC)[C@@H](C)O [P9R] (H-NGAICWGPCPTAFRQIGNCGRFRVRCCRIR-OH),0.9 µg/mL,> 25.0 µg/mL,did not show antiviral activity,> 5000 µg/mL,did not affect viral attachment,could efficiently bind,could efficiently inhibit,> 20 fold,could also bind,could significantly inhibit viral replication,> 20 fold,could also bind,could also bind,more than 100 fold,could also significantly inhibit viral replication,more than 100 fold,more than 100 fold,could more significantly inhibit endosomal acidification in live cells than that of P9
"CO/C1=C\C(C)=C\[C@@H](C)[C@@H](O)[C@@H](C)C/C(C)=C/C=C/[C@H](OC)[C@@H]([C@@H](C)[C@@H](O)[C@H](C)[C@@]2(O)C[C@@H](O)[C@H](C)[C@@H](C(C)C)O2)OC1=O [bafilomycin A1, reference compound]",,,,,,,could efficiently inhibit,,,,,,,,,,,
